These results are taken from US20260263433A1, “TETRAZOLIUM AND FORMAZAN COMPOUNDS AND METHODS OF MAKING AND USING THE SAME” (ARIZONA BOARD OF REGENTS ON BEHALF OF THE UNIVERSITY OF …, priority 2022, published 2026).

Data set [1] in a line: Fe(II) coordination in buffered aqueous solution (optical absorption changes). The data set is classed as physicochemical. The note with it: absorption 500-800 nm. Here is the method: These two compounds were retained in the experiments as controls.
The tetrazolium salts (FIGS. 4A-4B) were synthesized from the formazans by the process outlined in FIG. 4C, which included oxidation with N-bromo-succinimide. For structures featuring a 2-hydroxyphenyl group, the oxidation was carried out on methoxyphenyl precursors and followed by a demethylation step in the presence of BBr3. The tetrazolium compounds were isolated as bromide salts.

The test system of data set [2] is MDA-MB-231 (Breast). The experiment in a line: Antiproliferative activity, resazurin readout, MDA-MB-231. In kind it is cell-based, human. The note with it: 72 h incubation, 0.032-100 μM, mean ± SDM, n = 3. Here is the method:
(§1) Once the stability data and the information on the reduction and iron binding of the new cohort of tetrazolium salts had been obtained, the antiproliferative activity of the new cohort was assessed in a panel of mammalian cell lines. Cancer cells require more iron than normal cells in order to sustain fast proliferation rate. Therefore, compounds that interfere with intracellular iron availability display antiproliferative activity.^12 Indeed iron chelation and prochelation strategies could provide new therapeutic avenues in anticancer drug discovery.^4
(§2) Cancer cell lines of different origin were selected (ovarian A2780, breast MDAMB-231, colon Caco-2, and lung A549), and a normal cell line (MRC-5, lung fibroblasts) was selected as a comparison.
(§3) Because the colorimetric MTT reagent is one of the compounds being tested in this panel, the reduction of resazurin to brightly fluorescent resorufin was chosen as a readout for the assessment of antiproliferative activity.
Background: The colour change of resazurin is a common sign of viable cells or microbes.

Data set [3] deals with MRC-5 (Normal lung). The experiment in a line: Antiproliferative activity, resazurin readout, MRC-5 normal lung fibroblasts. The data set is classed as cell-based, human. The conditions noted are these: 72 h incubation, 0.032-100 μM, mean ± SDM, n = 3. As to the method:
as §1, §2, §3

Data set [4] deals with A2780 (Ovary). Kind of data set: Antiproliferative activity, resazurin readout, A2780. The data set is classed as cell-based, human. The conditions noted are these: for IC50: 72 h incubation, 0.032-100 μM, mean ± SDM, n = 3. Here is the method:
as §1, §2, §3

For data set [5], the system named is panel of mammalian cell lines. The experiment in a line: Antiproliferative activity across the panel of cell lines. In kind it is cell-based, human. The note with it: 72 h, tested cell lines. Here is the method: as §1, §2, §3
Data set [6] concerns Caco-2 (Colon). Kind of data set: Antiproliferative activity, resazurin readout, Caco-2. The note with it: 72 h incubation, 0.032-100 μM, mean ± SDM, n = 3. In kind it is cell-based, human. As to the method:
as §1, §2, §3

Data set [7] deals with A549 (Lung). The experiment in a line: Antiproliferative activity, resazurin readout, A549. The data set is classed as cell-based, human. The note with it: 72 h incubation, 0.032-100 μM, mean ± SDM, n = 3. Here is the method: as §1, §2, §3
The nature of data set [8]: Reduction of tetrazolium salts by cyclic voltammetry in buffered aqueous solution. In kind it is physicochemical. The conditions noted are these: 50 mM PBS pH 7.4, 25° C., K3[Fe(CN)6] reference, irreversible reduction. As to the method:
The reduction of all the tetrazolium salts was investigated by cyclic voltammetry in buffered aqueous solutions (50 mM phosphate buffered saline solution, pH 7.4, K3[Fe(CN)6] as reference E0=0.430 V vs. NHE, 25° C.). Each compound presents an irreversible reduction at a potential that varies considerably depending on the identity of the aryl substituents on the tetrazolium core. Although the peaks are rather broad and likely susceptible to shifts depending on the specific experimental conditions, the peak potentials (Table 1, referenced to NHE) of some of these tetrazolium compounds indicate that they are reduced outside the biologically relevant window. […] On the other hand, the fact that the tetrazolium compounds are harder to reduce relative to MTT (with the exception of the benzothiazole derivative 1b) makes them well suited for intracellular activation in the reducing microenvironment of malignant cells. Compounds 2b, 4b, 6b and 7b are likely to be reduced intracellularly to the formazan species.

Data set [9] deals with A2780 ovarian cancer cells. Kind of data set: Effect of iron supplementation on toxicity, LIVE/DEAD stain, flow cytometry. In kind it is cell-based, human. The conditions noted are these: compounds 40 μM with or without ferric ammonium citrate 50 μM or holo-transferrin 50 μM, 48 h. As to the method:
FIGS. 6A-6B depict the effects of iron supplementation on toxicity in A2780 ovarian cancer cells. The percentage of dead cells was determined using the LIVE/DEAD fixable stain as measured by flow cytometry. FIG. 6A depicts the quantification of dead cells after treating in the presence of test compounds (40 μM) with or without ferric ammonium citrate (FAC, 50 μM) for 48 h. FIG. 6B depicts the quantification of dead cells after treating in the presence of test compounds (40 μM) with or without holo-transferrin (holo-TF, 50 μM) for 48 h. Experiments were conducted in triplicate and the values shown are averages ±standard deviation. **p<0.01, ***p<0.001, ****p<0.0001.
The biological activity of the tetrazolium and formazan compounds was investigated in A2780 cells, in which they presented the highest antiproliferative activity. In particular, experiments were performed to confirm that the antiproliferative activity of these compounds is associated with the availability of intracellular iron.

Data set [10] can be described thus: Stability in fetal bovine serum monitored by HPLC. In kind it is in vitro ADME. The note with it: 24 h. As to the method: FIGS. 5A and 5B depict the assessment of stability of the tetrazolium-based prochelators in fetal bovine serum (FBS) for a period of 24 h.
The stability of exemplary tetrazolium compounds was tested in fetal bovine serum and monitored by HPLC analysis.

For the molecule `Cc1nc(N=NC(=NNc2ccccc2)c2ccccc2)sc1C` [MTF, reference compound], the Iron binding result in data set [1] is “coordinate Fe(II)”.

In general, IC50 refers to the concentration that inhibits the measured activity by half. Consider `[Br-].c1ccc(-c2nn(-c3ccc4ccccc4n3)[n+](-c3ccccc3)n2)cc1` [QT], for which the values for the IC50 in data set [2], in data set [3] and in data set [4] were 0.3 ± 0.1 µM, 3.5 ± 0.8 µM and 0.8 ± 0.1 µM, respectively. In addition, the “IC50 values in A2780 cell lines, in words” value in data set [4] is on record as “sub-micromolar”.

As to `c1ccc(NN=C(N=Nc2nccc3ccccc23)c2ccccc2)cc1` [IQF], the “Antiproliferative activity / toxicity in the cell panel, in words” value (“Antiproliferative activity / toxicity” below) in data set [5] is “sub-micromolar or low-micromolar”. For the same molecule, the IC50 was 1.4 ± 0.5 µM in data set [2] and 0.7 ± 0.1 µM in data set [4].

Take `c1ccc(NN=C(N=Nc2ncc3ccccc3n2)c2ccccc2)cc1` [QZF]: in [5], the “Antiproliferative activity / toxicity” value is on record as “sub-micromolar or low-micromolar”. For the same molecule, the IC50 amounted to 1.8 ± 0.5 µM in data set [2], 4.2 ± 0.3 µM in [3] and 0.6 ± 0.1 µM in data set [4].

Turning to `c1ccc(N=NC(=NNc2ccccc2)c2ccccn2)cc1` [6a], the Iron binding entry in [1] is listed as “did not show any indication of iron binding”.

Consider `c1ccc(NN=C(N=Nc2cnc3ccccc3n2)c2ccccc2)cc1` [QXF], for which the “Antiproliferative activity / toxicity” value in [5] is “sub-micromolar or low-micromolar”. Besides, the IC50 in data set [2] amounted to 22 ± 3 µM; in data set [3], 11 ± 2 µM; in data set [4], 9 ± 2 µM.

Take `O=C(O)c1ccc(-n2nc(-c3ccccc3O)nc2-c2ccccc2O)cc1` [DFX, deferasirox, reference compound]: the IC50 in data set [6] (Homo sapiens, Caco-2) is 67 ± 2 µM; in [2] (Homo sapiens, MDA-MB-231), 17 ± 1 µM; in data set [3] (Homo sapiens, MRC5), more than 100 µM; in data set [7] (Homo sapiens, A549), 21 ± 3 µM; in data set [4] (Homo sapiens, A2780) it was 15 ± 0.5 µM.

For `Oc1ccccc1-c1nn(-c2ccccc2)[n+](-c2ccccc2)n1.[Br-]` [7b], the IC50 in data set [6] is more than 100 µM; in data set [2], more than 100 µM; in data set [3] it was more than 100 µM; in data set [7], more than 100 µM; in data set [4], 74 ± 7 µM. The “Antiproliferative activity / toxicity” value in data set [5] is given as “low toxicity”. Besides, the “Ered vs. NHE (peak potential Ep)” value in data set [8] was −187 mV.

Regarding `Oc1ccccc1C(N=Nc1ccccc1)=NNc1ccccc1` [7a], the Iron binding entry in data set [1] is reported as “did not show any indication of iron binding”.

`c1ccc(NN=C(N=Nc2ccc3ccccc3n2)c2ccccc2)cc1` [QF]: in data set [5], the “Antiproliferative activity / toxicity” value was “sub-micromolar or low-micromolar”. Also, the results for the IC50 in data set [2], in data set [3] and in [4] were 7 ± 2 µM, 89 ± 9 µM and 14 ± 2 µM, respectively.

As to `[Br-].c1ccc(-c2nn(-c3ccccn3)[n+](-c3ccccc3)n2)cc1` [2b], the half-inhibitory concentration (IC50) is 13 ± 2 µM in data set [6]; 16 ± 2 µM in data set [2]; more than 100 µM in data set [3]; 17 ± 2 µM in data set [7]; 16 ± 3 µM in [4]. The “Antiproliferative activity / toxicity” value in [5] is “promising antiproliferative activities”. In addition, the “Ered vs. NHE (peak potential Ep)” value in data set [8] was −130 mV. For the same molecule, in data set [9], the “Effect of iron supplementation on cell death” value (“Effect of iron supplementation” below) is listed as “could be rescued by iron supplementation”.

Turning to `Oc1ccccc1-n1nc(-c2ccccn2)n[n+]1-c1ccccc1.[Br-]` [5b], the IC50 is more than 100 µM in data set [6]; more than 100 µM in [2]; more than 100 µM in [3]; more than 100 µM in [7]; 90 ± 10 µM in data set [4]. In addition, in data set [5], the “Antiproliferative activity / toxicity” value is “low cytotoxicity”. For the same molecule, the “Ered vs. NHE (peak potential Ep)” value in [8] was −380 mV.

On to `Cc1nc(-[n+]2nc(-c3ccccc3)nn2-c2ccccc2)sc1C.[Br-]` [MTT, reference compound], for which the IC50 stood at 92 ± 7 µM in data set [6]; 48 ± 7 µM in [2]; 32 ± 5 µM in data set [3]; 44 ± 9 µM in data set [7]; 45 ± 9 µM in [4]. The “Antiproliferative activity / toxicity” value in data set [5] is listed as “moderate antiproliferative activities”. The “Ered vs. NHE (peak potential Ep)” value in [8] is recorded as 94 mV. For the same molecule, the Stability in serum entry in data set [10] was “significant degradation”.

Turning to `c1ccc(-c2nn(-c3cnc4ccccc4n3)[n+](-c3ccccc3)n2)cc1` [QXT], the figures for the IC50 in [2], in data set [3] and in data set [4] were 26 ± 3 µM, 45 ± 8 µM and 19 ± 2 µM, respectively.

Take `[Br-].c1ccc(-c2nn(-c3nc4ccccc4s3)[n+](-c3ccccc3)n2)cc1` [1b]: the IC50 in [6] stood at 40 ± 3 µM; in data set [2], 21 ± 2 µM; in data set [3], 97 ± 10 µM; in [7], 41 ± 3 µM; in data set [4] it was 23 ± 3 µM. Also, the “Antiproliferative activity / toxicity” value in data set [5] is “moderate antiproliferative activities”. In data set [8], the “Ered vs. NHE (peak potential Ep)” value came to 207 mV. Moreover, the Stability in serum entry in data set [10] was “significant degradation”.

Turning to `Oc1ccccc1-c1nn(-c2ccccn2)[n+](-c2ccccc2)n1.[Br-]` [4b], the IC50 in data set [6] is 29 ± 3 µM; in data set [2], 17 ± 2 µM; in data set [3], more than 100 µM; in data set [7], 28 ± 4 µM; in data set [4], 12 ± 3 µM. Also, the “Antiproliferative activity / toxicity” value in [5] was “promising antiproliferative activities”. In addition, the “Ered vs. NHE (peak potential Ep)” value in [8] is reported as −102 mV. Moreover, the “Effect of iron supplementation” value in data set [9] is reported as “could be rescued by iron supplementation”.

`[Br-].c1ccc(-n2nc(-c3ccccn3)n[n+]2-c2ccccc2)cc1` [6b]: the IC50 in data set [6] was more than 100 µM; in [2], more than 100 µM; in [3] it was more than 100 µM; in data set [7] it was more than 100 µM; in [4], 74 ± 4 µM. In [5], the “Antiproliferative activity / toxicity” value was “low toxicity”. For the same molecule, in data set [8], the “Ered vs. NHE (peak potential Ep)” value is −241 mV. Moreover, the “Effect of iron supplementation” value in data set [9] is “not altered by iron supplementation”.

Take `Oc1ccccc1-n1nc(-c2ccccc2)n[n+]1-c1ccccc1.[Br-]` [3b]: the IC50 in data set [6], in data set [2], in data set [3], in data set [7] and in [4] was more than 100 µM throughout. For the same molecule, the “Antiproliferative activity / toxicity” value in [5] is on record as “low cytotoxicity”. Moreover, the “Ered vs. NHE (peak potential Ep)” value in [8] is −328 mV.

Consider `[Br-].c1ccc(-c2nn(-c3nccc4ccccc34)[n+](-c3ccccc3)n2)cc1` [IQT], for which the figures for the IC50 in data set [3] and in data set [4] were 14 ± 2 µM and 0.5 ± 0.1 µM, respectively. Further, the “IC50 values in A2780 cell lines, in words” value in data set [4] was “sub-micromolar”.
